Source: patent US5980913A, “Peptides having immunomodulatory activity” (Biochem Pharma, Inc., priority 1994, dated 1999)
Where a SMILES comes first, the peptide text is derived from it. [ ]: non-standard residue; d: D form.

Tests used:
B cells = test: Activation of B cells by mitogenic proliferation (LPS, PWM); format: cell-based, C57BL/6 mice
Text: (§1) c) Activation of T or B cells by Mitogenic Proliferation
(§2) A mitogenic lectin (mitogen) is a glycoprotein which binds and cross-links specific cells surface carbohydrate determinants, and will polyclonally stimulate lymphoid cells. Lymphocyte activation by either antigens or mitogens results in intracellular changes and the subsequent development into a lymphoblast. Mitogenic stimulation of lymphocytes in vitro is believed to mimic the series of events which occur in vivo following their stimulation by specific antigens. PHA and ConA; PWM and LPS mitogens can be used as a measurement of T cell and B cell activity, respectively. Briefly, the spleen mononuclear leukocytes from C57BL/6 mice are incubated in the presence or absence of mitogens with or without candidate drugs. After 72 hours or 5 days, ^3 H-thymidine incorporation is recorded as an indication of cell proliferation.
(§3) Lymphocytes were isolated from mice spleen or human blood in accordance to methods well known in the art. 100 μl of cell suspension of 2×10^6 cells/ml was added per well (2x10^5 cells/well) and incubated in the presence of lectin at the following concentrations:
PWM=0.2 to 0.02% final concentration
(§4) Cells were incubated for 3 days with PHA or ConA, or 5 days with PWM or LPS. 1 μCi of tritiated thymidine was added to each well for the last 6 hours (or 0.5 μCi for 18 hrs). The cells were harvested in a cell Harvester (Tortech®) and counted in a Beta counter.

T cells = test: Activation of T cells by mitogenic proliferation (ConA, PHA); format: cell-based, C57BL/6 mice
Text: as §1, §2, §3
PHA=0.01% to 0.001% final concentration
as §4

P815 target cells = test: Cytotoxic T lymphocytes (CTL) assay, 51Cr release, after 5 days mixed culture with drug; format: cell-based, C57BL/6 mice
Text: (§5) 1. Cytotoxic T Lymphocytes (CTL) Mixed Lymphocyte Reaction (MLR) and Mitogenic Response Assays
(§6) The protocols used are described in Hudson L., Haay F., Pratical immunology, 3rd edition, Blackwell, Scientific publications, Oxford 1989, p. 158-162, and p.447.
(§7) Lymphocytes were isolated from C57BL/6 mice and DBA/2 mice in accordance to techniques well known in the art. Cell concentration was adjusted to 10×10^6 cell/ml for each assay. The cells isolated from DBA/2 mice were irradiated with 3000 Rads.
(§8) In a 6 well plate, each well was set up with:
(§9) The cells were incubated for five days at 37° C. in 5% CO2, after which CTL and MLR assays were performed.
a) Cytotoxic T Lymphocytes (CTL)
P815 target cells were labelled with Cr^51 (0.1 mCi). After labelling, the cells were washed three times and resuspended to a concentration of 5×10^4 cells/ml in media. p T cells were then counted and diluted to obtain a concentration of 2.5×10^6 cells/ml, and then further diluted to obtain the following effector:target ratios:
100 μl of target cells+100 μl of CTLs were incubated for 4 hours. In parallel wells, 100 μl of target cells+100 μl of media were incubated for spntaneous release. After incubation, cells were centrifuged and 100 μl of supernatant was then counted using a gamma counter.
Results are expressed as % specific ^51 Cr release= [formula] where ER=experimental release, SR=spontaneous releaase, and
0 represents less than 20%, + represents 20-40%, ++ represents 40-60%, +++ represent 60-80%, and ++++ represents 80% and over.

[1] = tested on: C57BL/6 lymphocytes with irradiated DBA/2 cells; test: Mixed lymphocyte reaction (MLR), 3H thymidine uptake; format: cell-based, mice
Text: as §5, §6, §7, §8, §9
b) Mixed Lymphocyte Reaction (MLR)
Mixed lymphocyte reaction is an in vitro counterpart of the allograft rejection. Briefly, lymphocyte activation (mitotic response) is obtained when cells from two inbred strains or from two outbred individuals of any species are mixed in in vitro culture. To have a unidirectional response, the proliferation of either cell type may be blocked with X-ray irradiation or mitomycin C treatment. After 4 days incubation, ^3 H thymidine uptake and cytotoxicity assays (CTL) were performed. The cells were then resuspended and 100 μl of cell suspension was deposited in each well of a 96 well plate. 1 μCi of tritiated thymidine was added for 6 hours. After incubation, the cells were then harvested and counted using a Microbeta counter.

[2] = concentration not given, 0 not defined

Row | Structure (SMILES) | Activation of B Cells, LPS (B cells; 10^-8 - 10^-5 M) | Activation of B Cells, PWM (B cells; 10^-8 - 10^-5 M) | stimulation of B cells in vitro (in words) (B cells; summary of Table 1) | Activation of T Cells, ConA (T cells; 10^-12 M - 10^-10 M) | Activation of T Cells, PHA (T cells; [2]) | stimulation of T cells in vitro (in words) (T cells; summary of Table 1) | CTL, % augmentation compared to IL-2 (IL-2 is 100%) (P815 target cells; 10^-9 M) | MLR ([1]; 10^-9 M) | Activation of B Cells, LPS (B cells; [2]) | Activation of B Cells, PWM (B cells; [2]) | Activation of T Cells, ConA (T cells; [2]) | stimulation of CTL in vitro (in words) (P815 target cells; summary of Table 1) | MLR [1, 2] | CTL, % augmentation compared to IL-2 (IL-2 is 100%) (P815 target cells; concentration not given)
1 | NCCCC[C@H](N)C(=O)N[C@@H](CC(N)=O)C(=O)NCC(=O)N[C@@H](Cc1ccc(O)cc1)C(=O)O [PEPTIDE #2, H-Lys-Asn-Gly-Tyr-OH] (H-KNGY-OH) | 1.8 - 3.5 × | 1.4 - 4.5 × | stimulates B cells | 1.3 × | 0 | stimulates T cells to a moderate extent | ++++ (++++ represents 80% and over) | 1.8 × | – | – | – | – | – | –
2 | NCCCC[C@H](N)C(=O)N[C@@H](CC(N)=O)C(=O)N1CCC[C@@H]1C(=O)N[C@@H](Cc1ccc(O)cc1)C(=O)O [PEPTIDE #3, H-Lys-Asn-(D-Pro)-Tyr-OH] (H-KN[dP]Y-OH) | – | – | – | – | 0 | – | ++ (++ represents 40-60%) | – | 0 | 0 | 0 | stimulate CTL | 0 | –
3 | NCCCC[C@H](N)C(=O)N[C@@H](CC(N)=O)C(=O)N1CCC[C@H]1C(=O)N[C@@H](Cc1ccccc1)C(=O)O [PEPTIDE #4, H-Lys-Asn-Pro-Phe-OH] (H-KNPF-OH) | – | – | – | – | 0 | – | – | – | 0 | 0 | 0 | – | 0 | 0 (0 represents less than 20%)
4 | NCCCC[C@H](N)C(=O)N[C@@H](CCC(N)=O)C(=O)N1CCC[C@H]1C(=O)N[C@@H](Cc1ccc(O)cc1)C(=O)O [PEPTIDE #6, H-Lys-Gln-Pro-Tyr-OH] (H-KQPY-OH) | – | – | – | – | 0 | – | – | – | 0 | 0 | 0 | – | 0 | 0 (0 represents less than 20%)
5 | NCC(=O)N[C@@H](CC(N)=O)C(=O)N1CCC[C@H]1C(=O)N[C@@H](Cc1ccc(O)cc1)C(=O)O [PEPTIDE #8, H-Gly-Asn-Pro-Tyr-OH] (H-GNPY-OH) | – | – | – | – | 0 | – | – | – | 0 | 0 | 0 | – | – | –
